Literature values, collected in patent publication US8895039B2, “Cosmetic preparations containing hydrocarbons” (Cognis IP Management GmbH, priority 2007, dated 2014).

Conditions: at 20° C.

- Viscosity: 0.711 cP
SMILES: CCCCCCCCC [Nonane]
